# Assay results from publication PMC6385087, “New Multitarget Hybrids Bearing Tacrine and Phenylbenzothiazole Motifs as Potential Drug Candidates for Alzheimer’s Disease” (Molecules, 2019).
# Key:
# SH-SY5Y cells = experiment: Dose-response screening for non-toxic concentration, MTT reduction; type: cell-based; settings: dose-response screening from 0.2 μM to 5 μM, 25 h
# Description: The neuroprotective effect of TAC-PhBTA conjugates was evaluated using SH-SY5Y cells treated with Aβ1–42 peptides or ascorbate/iron. For each compound, a dose-response curve was performed to select a non-toxic concentration in order to analyze its neuroprotective effect (Figure 3).
# SH-SY5Y human neuroblastoma cell line (ATCC-CRL-2266) grown in Dulbecco’s modified Eagle’s medium (DMEM) obtained from Gibco-Invitrogen (Life Technologies Ltd., Liverpool, UK) with 10% heat inactivated fetal calf serum, containing 50 U/mL penicillin, and 50 μg/mL streptomycin, under a humidified atmosphere of 95% air-5% CO2 at 37 °C. Cells were plated at 0.12 × 10^6 cells/mL for cell viability assay. […]. As a result we selected a 2.5 μM final concentration for compound 16; 0.5 μM final concentration for compound 17; 0.2 μM final concentration for compounds 14 and 15; and a 1 μM final concentration for compounds 19 and 18. […] The compounds were added to the cell media 1 h before the incubation with Aβ1–42 or ferrous sulfate/L-ascorbic acid. Aβ1–42 or ferrous sulfate/L-ascorbic acid where incubated alone or with the compound for an additional 24 h. Aβ1–42 was prepared as 276.9 μM stock in sterile water and added to the medium at 1 μM final concentration. Ferrous sulfate was freshly prepared as 0.36 M stock in water and added to the medium at 500 μM final concentration. L-Ascorbic Acid was freshly prepared as 80 mM stock in water and added to the medium at 5 mM final concentration. Aβ1–42 was purchased from Bachem (Torrance, CA, USA) and ferrous sulfate and L-ascorbic acid from Sigma Chemical Co (St. Louis, MO, USA).
# Cell viability was determined by a MTT (3-(4,5-dimethylthiazol-2-yl)-2,5-diphenyltetrazolium bromide) reduction test. In viable cells, the enzyme succinate dehydrogenase metabolizes MTT into formazan that absorbs light at 570 nm. Following the cell treatment protocol the medium was aspirated and 0.5 mL MTT (0.5 mg/mL) was added to each well. The plate was then incubated at 37 °C for 1 h 30 min protected from light. At the end of the incubation period the formazan precipitates were solubilized with 0.5 mL of acidic isopropanol (0.04 M HCl/isopropanol). The absorbance was measured at 570 nm. Cell reduction ability was expressed as a percentage of untreated control cells.
# AChE from electric eel = target: T1, AChE from electric eel (Electrophorus electricus, UniProt O42275); experiment: biochemical; settings: means of two experiments, read-out: Inhibition of AChE (IC50)
# T1 construct: commercially available enzyme AChE 500 U (extracted from electrophorus electricus); purchased type VI-S; host or cells: extracted from electric eel
# T1 sequence (O42275 24-633): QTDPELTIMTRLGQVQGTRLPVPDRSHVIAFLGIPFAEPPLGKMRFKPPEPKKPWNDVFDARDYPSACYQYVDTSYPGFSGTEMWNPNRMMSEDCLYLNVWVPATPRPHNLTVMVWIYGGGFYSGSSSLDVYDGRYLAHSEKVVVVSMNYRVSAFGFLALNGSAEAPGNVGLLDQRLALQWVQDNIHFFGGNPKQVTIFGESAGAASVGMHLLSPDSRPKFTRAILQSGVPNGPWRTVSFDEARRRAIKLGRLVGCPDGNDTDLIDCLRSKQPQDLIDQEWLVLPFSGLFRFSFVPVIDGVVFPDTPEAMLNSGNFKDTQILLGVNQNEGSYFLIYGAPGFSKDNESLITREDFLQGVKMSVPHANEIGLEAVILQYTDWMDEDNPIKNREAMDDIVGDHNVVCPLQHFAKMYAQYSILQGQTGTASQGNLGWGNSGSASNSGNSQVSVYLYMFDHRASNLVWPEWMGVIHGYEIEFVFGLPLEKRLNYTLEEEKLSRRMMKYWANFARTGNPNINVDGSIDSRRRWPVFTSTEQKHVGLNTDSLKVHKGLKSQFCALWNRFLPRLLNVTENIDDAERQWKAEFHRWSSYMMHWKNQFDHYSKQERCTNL
# Description: The analytical grade reagents were purchased from Sigma-Aldrich (St. Louis, MO, USA) and Acros (Thermo Fisher Scientific, Geel, Belgium) and were used without any further purification. The organic solvents were dried and distilled according to standard methods described in literature. […] The Proton and Carbon-13 NMR were recorded either on Bruker AVANCE III-300 (300 MHz and 75.5 MHz) or Bruker AVANCE III-400 (400 MHz and 100.5 MHz) NMR spectrometers (Billerica, MA, USA) at 25 °C using peaks of solvents as internal standard. The chemical shift values of protons or carbons were measured on a δ scale and the coupling constant values (J) were determined in Hertz. In the NMR representation, abbreviations are mentioned as: singlet represented by s, doublet represented by d, triplet represented by t, multiplet represented by m, double doublet represented by dd, and broad singlet represented by brs. The Leica Galen III hot stage apparatus (Leica Microsystems, Wetzlar, Germany) was used for measuring the melting points of compounds. […] The AChE inhibitory activity was measured in a 1 cm path length quartz cell through a Perkin Elmer Lambda 35 spectrophotometer equipped with a temperature programmer PTP1+1 Peltier System (T = 25.0 ± 0.1 °C) (Waltham, MA, USA). Electrospray ionization-mass (ESI-MS) measurements were carried out on a LCQ Fleet mass spectrometer (Thermo Scientific, S. Jose, CA, USA) operated in the ESI positive and negative ion modes.
# Modified Ellman’s method was used as described previously for the determination of AChE activity. The AChE stock solution was prepared by dissolving commercially available enzyme AChE 500 U (extracted from electrophorus electricus) in 10 mL of TRIS buffer (50 mM, pH 8). HEPES buffer was used for the dilution of the enzyme to give the final AChE concentration. The assay solution consisted of 374 μL of 4-(2-hydroxyethyl)-1-piperazineethanesulfonic acid (Hepes) buffer (50 mM, pH 8.0), 476 μL of 3 mM bis(3-carboxy-4-nitrophenyl)disulfide (DTNB), 25 μL of AChE (type VI-S, from electric eel) stock solution, a variable volume (10–50 μL) of the compound’s stock solution (1 mg/mL of MeOH), and the necessary amount of methanol to attain the same volume of sample mixture (0.925 mL) in a 1 mL cuvette. Samples were left to react for 15 min and then the reaction was monitored at wavelength of 405 nm for 5 min, after adding 75 μL of 16 mM acetylthiocholine iodide (AChI) solution. Assays were run with a blank containing all the components except AChE, which was replaced by HEPES buffer. The velocities of the reaction were calculated as well as the enzyme activity. A control reaction was carried out using the sample solvent (methanol) in the absence of any tested compound, and it was considered as 100% activity. […] The inhibition curves were obtained by plotting the percentage of enzymatic inhibition versus inhibitor concentration and a calibration curve was obtained from which the linear regression parameters were calculated.
SMILES,Highest non-toxic concentration selected (SH-SY5Y cells),IC50 (AChE from electric eel)
"COc1cc(-c2nc3ccccc3s2)ccc1OCC(=O)NCC(O)CNc1c2c(nc3cc(Cl)ccc13)CCCC2 (stereo not drawn) [compound 19, 2-(4-(Benzo[d]thiazol-2-yl)-2-methoxyphenoxy)-N-(3-((6-chloro-1,2,3,4-tetrahydroacridin-9-yl)amino)-2-hydroxypropyl)acetamide]",1 µM,140 nM
"COc1cc(-c2nc3ccccc3s2)ccc1OCC(=O)NCCNc1c2c(nc3cc(Cl)ccc13)CCCC2 [compound 15, 2-(4-(Benzo[d]thiazol-2-yl)-2-methoxyphenoxy)-N-(2-((6-chloro-1,2,3,4 tetrahydroacridin-9-yl)amino)ethyl)acetamide]",0.2 µM,60 nM
"COc1cc(-c2nc3ccccc3s2)ccc1OCC(=O)NCCCNc1c2c(nc3ccccc13)CCCC2 [compound 16, 2-(4-(Benzo[d]thiazol-2-yl)-2-methoxyphenoxy)-N-(3-((1,2,3,4-tetrahydroacridin-9-yl)amino)propyl)acetamide]",2.5 µM,150 nM
